Measurements: US10265270B2, “Solid dispersion of decoquinate, a preparation process and its application” (GUANGZHOU CAS LAMVAC BIOTECH CO., LTD., priority 2015, dated 2019)

Experiments:
[1] = In vitro dissolution test (paddle method); format: physicochemical; conditions: cumulative in vitro dissolution rate, 0.1 N HCl and 10 mM SDS, 37° C., 50 rpm
Procedure: The dissolution medium was a solution of 0.1 N hydrochloric acid (HCl) and 10 mM sodium dodecyl sulfonate (SDS). The instrument used in the test was RC-6 dissolution rate apparatus (Tianjin). The instrument parameters were set to 37° C., 50 rpm, the paddle method. To each dissolution vessel was added 900 ml of dissolution medium followed by initiating the instrument. When the temperature of the medium in each vessel reached 37° C., corresponding testing sample was added. One ml of sample solution was taken out at time points of 10, 20, 40, 60, 90, 120, 180, 240 and 270 minute respectively, and then 1 ml of dissolution medium was added back to supplement the vessel volume. The sample solutions collected from dissolution testing was passed through a 0.45 μm filter and the filtrate was analyzed by HPLC (Agilent, 1260) to determine the amount of DQ. An isocratic mobile phase of 80% ethanol and 20% water and a wavelength 260 nm were chosen for HPLC analysis.

[2] = Thermogravimetric analysis; format: physicochemical; conditions: at 250.5° C., heating rate 10° C./min, nitrogen
Procedure: The pure DQ was weighed for thermogravimetric analysis. The instruments used in the analysis included a balance with 0.0001 accuracy (Sartorius, available from Sartorius Scientific Instruments, Model: BSA124S) and a thermogravimetric analyzer (NETZSCH, Model: TG209F1, Germany).
Detection conditions, nitrogen: 20 mL/min, scanning procedures: temperature was increased to 350° C. from room temperature, heating rate: 10° C./min; detection was performed based on the General Rules for Thermal Analysis JY/T014-1996.

[3] = test system: Plasmodium berghei ANKA; assay: In vivo efficacy experiment, mice inoculated with sporozoites; conditions: NIH female mice, after 21 days; DQ 3, 10, 30 mg/kg; primaquine 30 mg/kg
Procedure: The NIH female mice used for the experiment were raised at least for 7 days after arrival. At the start of experiment, the mice were 7 weeks old. Only one mouse was housed in each cage maintained in a room with a temperature range of 18 to 26° C., a relative humidity of 34% to 68% in a 12/12 h light-dark cycle. Food and water were provided ad libitum during quarantine and throughout the study. This experiment was carried out in strict accordance with the relevant animal testing regulations (Guide for the Care and Use of Laboratory Animals, NRC publication, 2011 edition). The DQ suspension used in the animal experiment was from the product of Example 1, prepared with saline and subjected to ultrasonic treatment for 5 minutes. […] The detection of Plasmodium parasitemia was performed as follows: conventional method was used to count red blood cells per mm^3 of blood in that a thin film of blood was prepared and stained with 3% Giemsa for 20 minutes; and then the number of infected red blood cells per 1000 red blood cells was counted under oil microscope to obtain erythrocyte infected rate (EIR, %o). Survival rate was calculated on day 22 post-infection.
The dosage of product of Example 1 was calculated based on decoquinate mg/kg body weight, the negative control group used was saline, and the positive control group used 30 mg primaquine per kg body weight. […]

| Compound | Dissolved at 60 min ([1]; 60 min) | Dissolved at 90 min ([1]; 90 min) | amount of DQ remaining by weight in thermogravimetric analysis [2] | animal survival [3] |
| --- | --- | --- | --- | --- |
| CCCCCCCCCCOc1cc2c(O)c(C(=O)OCC)cnc2cc1OCC [Pure DQ, Decoquinate] | 6.87 | 14.60 | 99 % by weight | – |
| COc1cc(NC(C)CCCN)c2ncccc2c1 (stereo not shown) [primaquine] | – | – | – | all animals survived |
